Here are results for 18 molecules from ChEMBL document CHEMBL3804772, “Enantioselective synthesis and antioxidant activity of 3,4,5-substituted piperidine derivatives” (Bioorg Med Chem Lett, 2016).

Bounds are passed on as bounds.

The data set in a line: Antioxidant activity assessed as ABTS radical scavenging activity after 60 mins. The class given is physicochemical.
By IC50 is commonly meant the concentration at which inhibition is half-maximal. Turning to `CCOC(=O)[C@@H]1C(=O)N(Cc2ccccc2)C[C@@H](ON2C(C)(C)CCCC2(C)C)[C@H]1c1ccc(C)cc1`, the IC50 was determined as 98.4 µM.

As for `Cc1ccc([C@H]2[C@H](CO)CN(Cc3ccccc3)C[C@H]2ON2C(C)(C)CCCC2(C)C)cc1`, the IC50 came out at 0.09 µM.

As for `CCOC(=O)[C@@H]1C(=O)N(Cc2ccccc2)C[C@@H](O)[C@H]1c1ccccc1`, the IC50 was more than 100 µM.

Take `CCOC(=O)[C@@H]1C(=O)N(Cc2ccccc2)C[C@@H](O)[C@H]1c1ccc(C)cc1`: the IC50 is more than 100 µM.

As to `Cc1ccc([C@H]2[C@H](CO)CN(Cc3ccccc3)C[C@H]2O)cc1`, the IC50 is 85.3 µM.

As to `OC[C@@H]1CN(Cc2ccccc2)CC[C@H]1c1ccccc1`, the IC50 was more than 100 µM.

As to `OC[C@@H]1CN(Cc2ccccc2)C[C@@H](O)[C@H]1c1ccccc1`, the IC50 was more than 100 µM.

Regarding `CC1(C)CCCC(C)(C)N1O[C@@H]1CN(Cc2ccccc2)C[C@@H](CO)[C@@H]1c1ccc(F)cc1`, the half-maximal inhibitory concentration (IC50) is 0.095 µM.

Consider `OC[C@@H]1CN(Cc2ccccc2)C[C@@H](O)[C@H]1c1ccc(F)cc1`, for which the concentration for half-maximal inhibition (IC50) stood at 9.61 µM.

For `CCOC(=O)[C@@H]1C(=O)N(Cc2ccccc2)C[C@@H](ON2C(C)(C)CCCC2(C)C)[C@H]1c1ccc(F)cc1`, the IC50 came to 15.9 µM.

With `CCOC(=O)[C@@H]1C(=O)N(Cc2ccccc2)C[C@@H](ON2C(C)(C)CCCC2(C)C)[C@H]1c1ccccc1`, the IC50 amounted to 12.2 µM.

Regarding `CCOC(=O)[C@@H]1C(=O)N(Cc2ccccc2)CC[C@H]1c1ccccc1`, the IC50 is more than 100 µM.

On to `CC(=O)OC[C@@H]1CN(Cc2ccccc2)C[C@@H](ON2C(C)(C)CCCC2(C)C)[C@H]1c1ccccc1`, for which the IC50 stood at 0.573 µM.

Take `CCOC(=O)[C@@H]1C(=O)N(Cc2ccccc2)C[C@@H](O)[C@H]1c1ccc(F)cc1`: the 50% inhibitory concentration (IC50) was more than 100 µM.

As to `CC1(C)CCCC(C)(C)N1O[C@@H]1CN(Cc2ccccc2)C[C@@H](CO)[C@@H]1c1ccccc1`, the half-maximal inhibitory concentration (IC50) stood at 0.093 µM.

Turning to `CC1(C)CCCC(C)(C)N1[O]`, the IC50 came out at 0.026 µM.

On to `O=C1O[C@H]([C@@H](O)CO)C(O)=C1O` [ASCORBIC ACID], for which the concentration for half-maximal inhibition (IC50) was 25.6 µM.

With `O=c1c(O)c(-c2ccc(O)c(O)c2)oc2cc(O)cc(O)c12` [QUERCETIN], the IC50 stood at 5.57 µM.
